Columns and labels:
[1] = biological target: T1, IGS4B (Homo sapiens, UniProt Q9GZQ4, A395T/F315L/M388V/P383L/S298T); assay: FLIPR intracellular calcium mobilisation in CHOGα16-IGS4 cells (IGS4B); assay type: cell-based; settings: for maximal activation of IGS4B: comparison among the three neuromedin U isoforms; for IGS4-mediated calcium mobilisation in the FLIPR assay: range 10^−6–10^−12 M, IGS4B
T1 construct: expressed in transfected cells; host or cells: CHOGα16 (CHO cells stably expressing Gα16, Molecular Devices), transfected with IGS4-pcDNA3.1
T1 sequence (Q9GZQ4 whole entry S298T/F315L/P383L/M388V/A395T, canonical isoform): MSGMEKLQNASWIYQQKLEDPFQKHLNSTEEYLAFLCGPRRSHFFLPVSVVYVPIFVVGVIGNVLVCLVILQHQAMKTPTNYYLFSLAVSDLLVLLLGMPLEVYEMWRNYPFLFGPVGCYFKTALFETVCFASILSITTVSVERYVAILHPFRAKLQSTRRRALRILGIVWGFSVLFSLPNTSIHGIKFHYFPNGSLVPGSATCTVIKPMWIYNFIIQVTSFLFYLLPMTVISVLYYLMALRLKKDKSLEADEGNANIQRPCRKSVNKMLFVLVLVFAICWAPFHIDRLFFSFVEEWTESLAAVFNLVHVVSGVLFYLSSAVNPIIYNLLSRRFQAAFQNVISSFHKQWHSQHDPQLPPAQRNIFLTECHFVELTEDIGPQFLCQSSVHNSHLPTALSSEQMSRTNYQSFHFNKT
Method: (§1) A. Method and Materials for IGS-4 Transfected CHOGα16IGS4 cells.
(§2) The following materials were used in the experiments: Vector containing IGS4-DNA sequence (IGS4-pcDNA3.1); SuperFect Transfection Reagent (Qiagen): Nut-Mix F12 (Gibco) with 10% FCS, 0.028 mg/ml Gentamycin (Gibco); 0.22 mg/ml Hygromycin (Gibco).
(§3) Materials used for clone selection: Nut-Mix F12 with 10% FCS; 0.028 mg/ml Gentamycin; 0.22 mg/ml Hygromycin and 0.55 mg/ml Geneticin (Gibco).
(§4) The following method was applied: Transfection with SuperFect Transfection Reagent was carried out as described by the manufacturer (Qiagen). Cells were plated in 24-well plates to 50% confluence. Per well […] plasmid-DNA with 1 μl SuperFect Transfection Reagent was added. After 24 hours the medium was changed and transfected cell clones were selected by Geneticin-containing selection-medium. IGS4 expressing cell clones were characterized by RT-PCR and Northern Blot.
B. Method and Materials for FLIPR-Assay.
The method was performed as follows: Cells were seeded 24 hours or 48 hours prior to the experiment into black wall microplates. The cell density was […] cells/well for 48 hour incubation and […] cells/well for 24 hour incubation. All steps were done under sterile conditions.
In order to observe changes in intracellular calcium levels, cells must be ‘loaded’ with a calcium-sensitive fluorescent dye. This dye, called FLUO-4 (Molecular Probes) is excited at 488 nm, and emits light in the 500–560 nm range, only if a complex with calcium is formed. The dye was used at 4 μM final concentration. Pluronic acid was added to increase dye solubility and dye uptake into the cells. Probenicid, an anion exchange protein inhibitor, was added to the dye medium to increase dye retention in the cells.
The method was worked as follows: The 2 mM stock of dye was mixed with an equal volume of 20% (w/v) pluronic acid immediately before adding to the loading-Buffer. The growth-medium was aspirated out of the well without disturbing the confluent cell layer. 100 μl loading medium was dispensed into each well using a Multidrop (Labsystems). Cell were incubated in a 5% CO2, 37° C. incubator for 30 minutes. In order to calculate the, background fluorescence, some wells were not dye loaded. The background fluorescence in these wells results from autofluorescence of the cells. After dye loading, cell were washed three times with Wash-Buffer (automated Denley cell washer) to reduce the basal fluorescence to 20.000–25.000 counts above background. 100 l buffer was added and cell were incubated at 37° C. till start of the experiment. […]
The resulting CHOGα16-IGS4 cells were functionally screened on a Fluorometric Imaging Plate Reader (FLIPR) to measure mobilisation of intracellular calcium in response to putative peptide ligands. […]

[2] = biological target: T2, IGS4A (Homo sapiens, UniProt Q9GZQ4, A395T); assay: FLIPR intracellular calcium mobilisation in CHOGα16-IGS4 cells (IGS4A); assay type: cell-based; settings: range 10^−6–10^−12 M
T2 construct: expressed in transfected cells; host or cells: CHOGα16 (CHO cells stably expressing Gα16, Molecular Devices), transfected with IGS4-pcDNA3.1
T2 sequence (Q9GZQ4 whole entry A395T): as the sequence (Q9GZQ4 whole entry S298T/F315L/P383L/M388V/A395T, canonical isoform) above, with T298S, L315F, L383P, V388M counted along it
Method: as §1, §2, §3
as §4, with “IGS4 expressing cell clones were characterized by RT-PCR and Northern Blot.” left out
The method was worked as follows: The 2 mM stock of dye was mixed with an equal volume of 20% (w/v) pluronic acid immediately before adding to the loading-Buffer. […] In order to calculate the, background fluorescence, some wells were not dye loaded. The background fluorescence in these wells results from autofluorescence of the cells. After dye loading, cell were washed three times with Wash-Buffer (automated Denley cell washer) to reduce the basal fluorescence to 20.000–25.000 counts above background. […]

[3] = system: IGS4; assay: Basal intracellular cAMP in CHOGα16-IGS4 cells; assay type: cell-based, human; settings: 1 and 10 μM; data not shown

## neuromedin U-8
[1]
  maximal activation of IGS4B: same maximal activation
  IGS4-mediated calcium mobilisation in the FLIPR assay: induced specific IGS4-mediated calcium mobilisation
[2]
  IGS4-mediated calcium mobilisation in the FLIPR assay: induced specific IGS4-mediated calcium mobilisation
[3]
  basal levels of intracellular cAMP: not modulated

## neuromedin U-25
[1]
  maximal activation of IGS4B: same maximal activation
  IGS4-mediated calcium mobilisation in the FLIPR assay: induced specific IGS4-mediated calcium mobilisation
[2]
  IGS4-mediated calcium mobilisation in the FLIPR assay: induced specific IGS4-mediated calcium mobilisation

From patent US7151165B2, “Antibodies immunospecific for a novel human G-protein coupled receptor family” (priority 1999, dated 2006)
